# Measured values published in ChEMBL document CHEMBL1128462, “In vivo and in vitro studies on the neurotoxic potential of 6-hydroxydopamine analogs” (J Med Chem, 1995).
# Tests used:
# Mus musculus [1] = species: Mus musculus; test: Long term depletion of Dopamine(DA) in Whole mouse Brain at a low dose (60 nmol); format: functional
# [2] = target: T1, Norepinephrine transporter (Rattus norvegicus, UniProt Q9WTR4); test: Evaluated for the Competitive inhibition of uptake of norepinephrine
# Mus musculus [3] = species: Mus musculus; test: Long term depletion of Serotonin(5-HT) in Whole mouse Brain at a high dose (300 nmol); format: functional
# Rattus norvegicus [4] = species: Rattus norvegicus; test: Evaluated for the stimulation of synaptosomal release of norepinephrine (release constant); format: functional
# Mus musculus [5] = species: Mus musculus; test: Long term depletion of Serotonin(5-HT) in Whole mouse Brain at a low dose (60 nmol); format: functional
# Mus musculus [6] = species: Mus musculus; test: Long term depletion of Dopamine(DA) in Whole mouse Brain at a high dose (300 nmol); format: functional
# [7] = target: Sodium-dependent dopamine transporter (Rattus norvegicus, UniProt P23977); test: Evaluated for the Competitive inhibition of uptake of dopamine transporter
# Sequence of Sodium-dependent dopamine transporter (P23977 whole entry): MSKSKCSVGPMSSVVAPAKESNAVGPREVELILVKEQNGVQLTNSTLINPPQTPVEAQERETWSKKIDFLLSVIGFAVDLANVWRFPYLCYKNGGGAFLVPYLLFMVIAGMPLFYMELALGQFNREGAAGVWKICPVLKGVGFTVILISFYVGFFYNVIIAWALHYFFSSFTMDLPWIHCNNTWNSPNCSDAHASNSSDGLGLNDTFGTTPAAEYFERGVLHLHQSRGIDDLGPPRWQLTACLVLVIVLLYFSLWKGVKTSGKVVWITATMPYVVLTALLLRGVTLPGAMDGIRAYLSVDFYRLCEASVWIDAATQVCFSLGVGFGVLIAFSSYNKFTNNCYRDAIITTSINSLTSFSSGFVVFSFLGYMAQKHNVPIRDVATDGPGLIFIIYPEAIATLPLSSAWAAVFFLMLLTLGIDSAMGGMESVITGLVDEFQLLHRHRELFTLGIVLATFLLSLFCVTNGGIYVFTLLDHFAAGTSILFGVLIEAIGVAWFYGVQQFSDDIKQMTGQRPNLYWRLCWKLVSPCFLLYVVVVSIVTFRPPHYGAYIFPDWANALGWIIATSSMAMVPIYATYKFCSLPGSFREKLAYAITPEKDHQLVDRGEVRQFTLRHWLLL
# Mus musculus [8] = species: Mus musculus; test: Long term depletion of Norepinephrine (NE) in Whole mouse Brain at a low dose (60 nmol); format: functional
# Rattus norvegicus [9] = species: Rattus norvegicus; test: Evaluated for the stimulation of synaptosomal release of Dopamine (release constant); format: functional
# Mus musculus [10] = species: Mus musculus; test: Long term depletion of Norepinephrine (NE) in Whole mouse Brain at a high dose (300 nmol); format: functional
# [11] = target: T1, Norepinephrine transporter; test: Evaluated for the Non competitive inhibition of uptake of norepinephrine
# T1 sequence (Q9WTR4 whole entry): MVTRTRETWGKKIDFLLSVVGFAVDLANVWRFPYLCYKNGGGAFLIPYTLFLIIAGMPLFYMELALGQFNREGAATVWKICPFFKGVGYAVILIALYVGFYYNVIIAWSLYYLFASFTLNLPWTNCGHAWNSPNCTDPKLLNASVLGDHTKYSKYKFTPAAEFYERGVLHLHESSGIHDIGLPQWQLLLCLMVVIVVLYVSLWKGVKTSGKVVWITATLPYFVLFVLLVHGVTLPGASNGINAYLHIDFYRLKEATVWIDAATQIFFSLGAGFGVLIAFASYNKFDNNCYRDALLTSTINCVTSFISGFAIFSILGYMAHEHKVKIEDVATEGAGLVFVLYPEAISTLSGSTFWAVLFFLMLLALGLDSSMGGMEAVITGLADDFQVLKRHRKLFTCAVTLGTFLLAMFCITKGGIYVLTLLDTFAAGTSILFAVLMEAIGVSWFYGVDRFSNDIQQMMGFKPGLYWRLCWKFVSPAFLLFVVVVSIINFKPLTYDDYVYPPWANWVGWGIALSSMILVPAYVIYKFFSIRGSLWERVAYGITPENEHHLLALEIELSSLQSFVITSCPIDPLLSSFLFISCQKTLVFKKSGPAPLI
Compound,Control (Mus musculus [1]) [%],Ki [2] [µM],Control (Mus musculus [3]) [%],EC50 (Rattus norvegicus [4]) [µM],Control (Mus musculus [5]) [%],percent of control (Mus musculus [6]) [%],Ki [7] [µM],Control (Mus musculus [8]) [%],EC50 (Rattus norvegicus [9]) [µM],Control (Mus musculus [10]) [%],Ki [11] [µM]
CC(N)Cc1cc(O)c(O)cc1N (configuration not stated),96,0.008,59,21,72,77,0.009,32,7,26,–
CC(N)Cc1cc(O)c(N)cc1O (configuration not stated),100,–,83,51,79,88,0.003,33,8,40,0.001
CC(N)Cc1cc(O)c(O)cc1O (configuration not stated),87,0.026,–,317,93,–,0.016,25,101,–,–
NCCc1cc(O)c(N)cc1O,100,0.005,72,34,73,85,0.009,37,21,39,–
